Assay results from patent publication US12059425B2, “Heterocyclic compounds and uses thereof” (Kumquat Biosciences Inc., priority 2022, dated 2024).

Columns and labels:
Type in all cases: biochemical
[1] = biological target: T1, K-Ras G12S (Homo sapiens, UniProt P01116, G12S); assay: PPI-HTRF assay, K-Ras G12S / SOS1 interaction; details: read-out: PPI-HTRF-5 nM (K-Ras G12S IC50)
T1 construct: made in house; host or cells: E. coli, e.g. BL21 (DE3)
From the text: (§1) This assay can be also used to assess a selective inhibition or reduction of signaling output of a mutant Ras protein relative to a wildtype, or relative to a different mutant Ras protein. For example, the equilibrium interaction of wildtype Kras or K-Ras mutant (e.g., wildtype or a mutant thereof) with SOS1 (e.g., hSOS1) can be assessed as a proxy or an indication for a subject compound's ability to bind and inhibit Ras protein. HTRF assay detects from (i) a fluorescence resonance energy transfer (FRET) donor (e.g., antiGST-Europium) that is bound to GST-tagged K-Ras mutant to (ii) a FRET acceptor (e.g., anti-6His-XL665) bound to a His-tagged hSOS1.
(§2) The assay buffer can contain ˜5 mM HEPES pH 7.4, ˜150 mM NaCl, ˜1 mM DTT, 0.05% BSA and 0.0025% (v/v) Igepal. A Ras working solution is prepared in an assay buffer containing typically a suitable amount of the protein construct (e.g., GST-tagged K-Ras mutant) and the FRET donor (e.g., antiGST-Eu(K) from Cisbio, France). A SOS1 working solution is prepared in an assay buffer containing suitable amount of the protein construct (e.g., His-hSOS1) and the FRET acceptor (e.g., anti-6His-XL665 from Cisbio, France). A suitable amount of the protein construct will depend on the range of activity or range of IC50 values being detected or under investigation. For detecting IC50 within a range of 500 nM, the protein constructs of the same range of molarity can be utilized.
(§3) A fixed volume of DMSO with or without test compound is transferred into a 384-well plate. Ras working solution is added to all wells of the test plate. SOS1 working solution is added to all wells except for those that are subsequently filled the inhibitor control solution. Upon incubation for about 10 minutes or longer, the fluorescence is measured with a M1000Pro plate reader (Tecan) using HTRF detection (excitation 337 nm, emission 1: 620 nm, emission 2: 665 nm). Compounds are tested in duplicate at different concentrations (for example, 10 μM, 2.5 μM, 0.63 μM, 0.16 μM, 0.04 μM, 0.01 μM test compound). The ratiometric data (i.e., emission 2 divided by emission 1) is used to calculate IC50 values against Ras using GraphPad Prism (GraphPad software). Following this general procedure, samples are tested with or without a subject compound disclosed herein including compounds exemplified in Table 1 to assess their abilities to inhibit a mutant K-Ras relative to another K-Ras (e.g., different mutant or wildtype). Signaling output measured in terms of IC50 values can be obtained, a ratio of IC50 against one mutant relative to another mutant can be calculated. For instance, a selective reduction of K-Ras G12D signaling output can be evidenced by a ratio greater than one. In particular, a selective reduction of K-Ras G12D signaling relative to K-Ras WT signaling is evidenced if the ratio of IC50 (against K-Ras WT) to IC50 (against K-Ras G12D) is greater than 1.

[2] = biological target: T2, K-Ras G12V (Homo sapiens, UniProt P01116, G12V); assay: PPI-HTRF assay, K-Ras G12V / SOS1 interaction; details: HTRF, K-Ras G12V; read-out: PPI-HTRF-5 nM (K-Ras G12V IC50)
T2 construct: made in house; host or cells: E. coli, e.g. BL21 (DE3)
T2 sequence (P01116 1-188 isoform P01116-2 G12V): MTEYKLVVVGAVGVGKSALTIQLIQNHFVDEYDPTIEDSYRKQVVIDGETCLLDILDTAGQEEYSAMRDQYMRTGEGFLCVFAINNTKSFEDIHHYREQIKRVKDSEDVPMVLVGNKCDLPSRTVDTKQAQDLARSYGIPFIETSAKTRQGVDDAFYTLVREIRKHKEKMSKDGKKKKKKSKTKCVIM
From the text: as §1, §2, §3

[3] = biological target: T3, wildtype K-Ras (Homo sapiens, UniProt P01116); assay: PPI-HTRF assay, wildtype K-Ras / SOS1 interaction; details: HTRF, K-Ras wt; read-out: PPI-HTRF-5 nM (K-Ras wt IC50)
T3 construct: made in house; host or cells: E. coli, e.g. BL21 (DE3)
T3 sequence (P01116 1-188 isoform P01116-2): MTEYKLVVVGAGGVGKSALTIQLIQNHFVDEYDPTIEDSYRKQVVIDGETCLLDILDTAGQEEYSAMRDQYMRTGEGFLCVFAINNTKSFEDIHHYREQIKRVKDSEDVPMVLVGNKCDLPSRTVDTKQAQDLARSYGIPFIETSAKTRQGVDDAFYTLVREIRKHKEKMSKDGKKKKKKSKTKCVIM
From the text: as §1, §2, §3

[4] = biological target: T4, K-Ras G12D (Homo sapiens, UniProt P01116, G12D); assay: PPI-HTRF assay, K-Ras G12D / SOS1 interaction; details: HTRF, K-Ras G12D; read-out: PPI-HTRF-5 nM (K-Ras G12D IC50)
T4 construct: made in house; host or cells: E. coli, e.g. BL21 (DE3)
T4 sequence (P01116 1-188 isoform P01116-2 G12D): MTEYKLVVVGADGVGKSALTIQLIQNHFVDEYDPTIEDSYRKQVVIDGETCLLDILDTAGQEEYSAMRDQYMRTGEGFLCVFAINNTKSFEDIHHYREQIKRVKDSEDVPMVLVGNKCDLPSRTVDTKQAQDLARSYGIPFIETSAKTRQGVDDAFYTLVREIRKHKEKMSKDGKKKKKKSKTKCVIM
From the text: as §1, §2, §3

T1 sequence (P01116 1-188 isoform P01116-2 G12S): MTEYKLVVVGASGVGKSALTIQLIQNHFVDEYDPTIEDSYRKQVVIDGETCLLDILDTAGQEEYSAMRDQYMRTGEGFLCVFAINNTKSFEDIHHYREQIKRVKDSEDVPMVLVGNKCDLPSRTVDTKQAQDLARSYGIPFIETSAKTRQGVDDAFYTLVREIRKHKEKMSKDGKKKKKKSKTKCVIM

SMILES | IC50 [1] [µM] | IC50 [2] [µM] | IC50 [3] [µM] | IC50 [4] [µM]
N#Cc1c(N)sc2c(F)ccc(-c3c(Cl)c4c5c(nc(OCC67CCCN6C[C@H](F)C7)nc5c3F)N3CCC(OC(F)F)CC3CO4)c12 (single isomer, unassigned) [compound 118] | < 5 | < 5 | < 5 | < 5
COCCN1c2nc(OC[C@@]34CCCN3C[C@H](F)C4)nc3c(F)c(-c4ccc(F)c5sc(N)c(C#N)c45)c(Cl)c(c23)OCC2COCC21 (stereo partly drawn) [compound 163, 2-amino-4-(6-chloro-4-fluoro-2-(((2R,7aS)-2-fluorotetrahydro-1H-pyrrolizin-7a(5H)-yl)methoxy)-12-(2-methoxyethyl)-8a,9,11a,12-tetrahydro-8H,11H-furo[3′,4′:6,7][1,5]oxazocino[4,3,2-de]quinazolin-5-yl)-7-fluorobenzo[b]thiophene-3-carbonitrile] | < 5 | < 5 | < 5 | < 5
N#Cc1c(N)sc2c(F)ccc(-c3c(Cl)c4c5c(nc(OC[C@@]67CCCN6C[C@H](F)C7)nc5c3F)N3CCC(C(F)F)CC3CO4)c12 (stereo partly drawn) [compound 194, 2-amino-4-(6-chloro-10-(difluoromethyl)-4-fluoro-2-(((2R,7aS)-2-fluorotetrahydro-1H-pyrrolizin-7a(5H)-yl)methoxy)-8,8a,9,10,11,12-hexahydropyrido[2′,1′:3,4][1,4]oxazepino [5,6,7-de]quinazolin-5-yl)-7-fluorobenzo[b]thiophene-3-carbonitrile] | < 5 | < 5 | < 5 | < 5
CN1c2nc(OC[C@@]34CCCN3C[C@H](F)C4)nc3c(F)c(-c4ccc(F)c5sc(N)c(C#N)c45)c(Cl)c(c23)OC2CN(C(=O)C(F)F)CC21 (stereo partly drawn) [compound 147, 2-amino-4-(6-chloro-9-(2,2-difluoroacetyl)-4-fluoro-2-(((2R,7aS)-2-fluorotetrahydro-1H-pyrrolizin-7a(5H)-yl)methoxy)-11-methyl-7a,8,9,10,10a,11-hexahydropyrrolo[3′,4′:2,3][1,4]oxazepino [5,6,7-de]quinazolin-5-yl)-7-fluorobenzo[b]thiophene-3-carbonitrile] | < 5 | < 5 | < 5 | < 5
N#Cc1c(N)sc2c(F)ccc(-c3c(Cl)c4c5c(nc(OC[C@@]67CCCN6C[C@H](F)C7)nc5c3F)N3CCC[C@@H]3CC(C(F)F)O4)c12 (single isomer, unassigned) [compound 123] | < 5 | < 5 | < 5 | –
CN1c2nc(OC[C@@]34CCCN3C[C@H](F)C4)nc3c(F)c(-c4ccc(F)c5sc(N)c(C#N)c45)c(Cl)c(c23)OC2COCC21 (stereo partly drawn) [compound 166, 2-amino-4-(6-chloro-4-fluoro-2-(((2R,7aS)-2-fluorotetrahydro-1H-pyrrolizin-7a(5H)-yl)methoxy)-11-methyl-7a,8,10a,11-tetrahydro-10H-furo[3′,4′:2,3][1,4]oxazepino[5,6,7-de]quinazolin-5-yl)-7-fluorobenzo[b]thiophene-3-carbonitrile] | < 5 | < 5 | < 5 | < 5
CC(O)C1C[C@H]2CCCN2c2nc(OC[C@@]34CCCN3C[C@H](F)C4)nc3c(F)c(-c4ccc(F)c5sc(N)c(C#N)c45)c(Cl)c(c23)O1 (single isomer, unassigned) [compound 122] | < 5 | < 5 | < 5 | –
N#Cc1c(N)sc2c(F)ccc(-c3c(Cl)c4c5c(nc(OC[C@@]67CCCN6C[C@H](F)C7)nc5c3F)N3[C@H](CO4)C[C@@H]3COC(F)F)c12 [compound 210, 2-amino-4-((8aS,10R)-6-chloro-10-((difluoromethoxy)methyl)-4-fluoro-2-(((2R,7aS)-2-fluorotetrahydro-1H-pyrrolizin-7a(5H)-yl)methoxy)-8,8a,9,10-tetrahydroazeto[2′,1′:3,4][1,4]oxazepino [5,6,7-de]quinazolin-5-yl)-7-fluorobenzo[b]thiophene-3-carbonitrile] | > 5 | > 5 | > 5 | > 5
CN1c2nc(OC[C@@]34CCCN3C[C@H](F)C4)nc3c(F)c(-c4ccc(F)c5sc(N)c(C#N)c45)c(Cl)c(c23)OCC2COCCC21 (stereo partly drawn) [compound 198, 2-amino-4-(6-chloro-4-fluoro-2-(((2R,7aS)-2-fluorotetrahydro-1H-pyrrolizin-7a(5H)-yl)methoxy)-13-methyl-8a,9,11,12,12a,13-hexahydro-8H-pyrano[4′,3′:6,7][1,5]oxazocino[4,3,2-de]quinazolin-5-yl)-7-fluorobenzo[b]thiophene-3-carbonitrile] | < 5 | < 5 | < 5 | < 5
CC(C)C1NCC12CC[C@H]1COc3c(Cl)c(-c4ccc(F)c5sc(N)c(C#N)c45)c(F)c4nc(OC[C@@]56CCCN5C[C@H](F)C6)nc(c34)N1C2 (single isomer, unassigned) [compound 179] | > 5 | – | – | < 5
N#Cc1c(N)sc2c(F)ccc(-c3c(Cl)c4c5c(nc(OC[C@@]67CCCN6C[C@H](F)C7)nc5c3F)N(CC(F)F)C3CN(C=O)CC3O4)c12 (stereo partly drawn) [compound 201, 2-amino-4-(6-chloro-11-(2,2-difluoroethyl)-4-fluoro-2-(((2R,7aS)-2-fluorotetrahydro-1H-pyrrolizin-7a(5H)-yl)methoxy)-9-formyl-7a,8,9,10,10a,11-hexahydropyrrolo[3′,4′:2,3][1,4]oxazepino [5,6,7-de]quinazolin-5-yl)-7-fluorobenzo[b]thiophene-3-carbonitrile] | < 5 | < 5 | < 5 | < 5
N#Cc1c(N)sc2c(F)ccc(-c3c(Cl)c4c5c(nc(OC[C@@]67CCCN6C[C@H](F)C7)nc5c3F)N3C[C@@H](N)C[C@H]3CO4)c12 [compound 191, 2-amino-4-((8aS,10S)-10-amino-6-chloro-4-fluoro-2-(((2R,7aS)-2-fluorotetrahydro-1H-pyrrolizin-7a(5H)-yl)methoxy)-8a,9,10,11-tetrahydro-8H-pyrrolo[2′,1′:3,4][1,4]oxazepino[5,6,7-de]quinazolin-5-yl)-7-fluorobenzo[b]thiophene-3-carbonitrile] | < 5 | < 5 | < 5 | < 5
CN1c2nc(OC[C@@]34CCCN3C[C@H](F)C4)nc3c(F)c(-c4ccc(F)c5sc(N)c(C#N)c45)c(Cl)c(c23)OCC2CCCC21 (stereo partly drawn) [compound 165, 2-amino-4-(6-chloro-4-fluoro-2-(((2R,7aS)-2-fluorotetrahydro-1H-pyrrolizin-7a(5H)-yl)methoxy)-12-methyl-8a,9,10,11,11a,12-hexahydro-8H-cyclopenta[6,7][1,5]oxazocino[4,3,2-de]quinazolin-5-yl)-7-fluorobenzo[b]thiophene-3-carbonitrile] | – | – | – | < 5
CC(C)C1NCC12CC[C@H]1COc3c(Cl)c(-c4ccc(F)c5sc(N)c(C#N)c45)c(F)c4nc(OC[C@@]56CCCN5C[C@H](F)C6)nc(c34)N1C2 (single isomer, unassigned) [compound 130] | < 5 | < 5 | < 5 | –
CC(O)C1C[C@H]2CCCN2c2nc(OC[C@@]34CCCN3C[C@H](F)C4)nc3c(F)c(-c4ccc(F)c5sc(N)c(C#N)c45)c(Cl)c(c23)O1 (single isomer, unassigned) [compound 160] | – | – | – | < 5
